In the assay the test system is tumor cell. As to the kind of experiment: Cytotoxicity assay (MTS). Format: cell-based. The conditions noted are these: 72 h; incubation for three days; read-out: IC50, tumor cell growth inhibition (MTS). On the procedure: The efficacy of a test compound in inhibiting tumor cell growth was analyzed using a MTS assay. The MTS assay is a calorimetric method for the determination of viable cells in proliferation by using a tetrazolium compound (3-(4,5-dimethylthiazol-2-yl)-5-(3-[…])-2-(4-sulfophenyl)-2H-tetrazolium, inner salt; MTS) and an electron-coupling agent (phenazine methosulfate; PMS). The MTS reagent is converted by dehydrogenase enzymes in metabolically active cells into a formazan that is soluble in a tissue culture medium.
In this assay, tumor cell suspensions (30 μl/well) were seeded into 384-well flat-bottomed tissue culture plates at an appropriate density overnight. A fresh medium (3 μl/well) containing varying concentrations of a test compound or vehicle was added to the culture followed by incubation for three days. At the end of the incubation, all plates were processed simultaneously as follows: The culture medium was aspirated, a MTS cell proliferation assay (Promega) solution (30 μl/well) was added, and the plates were incubated at 37° C. for about 2 hours. Absorbance (a parameter proportional to the cell mass) was measured at 490 nm using a Multiskan (Thermo Electron Corporation, Waltham, Mass.). Inhibition effects were expressed as corrected T/C values for each test compound according to the following equation:
T/C=(T−Blank)/(C−Blank)×100(%),
where T is the mean absorbance of the treated cells, C is the mean absorbance of the controls, and Blank is the mean absorbance of the cell free well.

Broadly, the IC50 is the concentration that gives 50% inhibition.

In the case of `Cc1ccc(C(=O)N(CCN)C(c2nc3c(oc4ccc(F)cc43)c(=O)n2Cc2cccc(Cl)c2)C(C)C)cc1` (centres unmarked) [Compound 122], the IC50 is below 30 µM.

Regarding `Cc1ccc(C(=O)N(CCN)[C@@H](c2nc3c(oc4ccc(F)cc43)c(=O)n2Cc2ccc(Cl)s2)C(C)C)cc1` [Compound 182], the IC50 was below 30 µM.

For `Cc1ccc(C(=O)N(CCCN)C(c2nc3c(oc4ccc(F)cc43)c(=O)n2Cc2ccc(Cl)s2)C(C)C)cc1` (centres unmarked) [Compound 71], the IC50 was below 30 µM. The same measure for `C#CCNC(=O)c1ccc(Cn2c(C(C(C)C)N(CCN)C(=O)c3ccc(C)cc3)nc3c(oc4ccc(F)cc43)c2=O)s1` (centres unmarked) [Compound 121]: below 30 µM; for `Cc1ccc(C(=O)N(CCCN)C(c2nc3cc4[nH]c(Br)cc4cc3c(=O)n2Cc2cccs2)C(C)C)cc1` (centres unmarked) [Compound 1]: below 30 µM; for `Cc1ccc(C(=O)N(CCN)[C@@H](c2nc3c(oc4ccc(F)cc43)c(=O)n2Cc2ccsc2)C(C)C)cc1` [Compound 194]: below 30 µM. To `CC(C)[C@H](c1nc2c(oc3ccc(F)cc32)c(=O)n1Cc1ccccc1)N(CCN)C(=O)c1ccc(C(F)(F)F)cc1` [Compound 207] belongs below 30 µM. The same measure for `CC(C)C(c1nc2c(oc3ccc(F)cc32)c(=O)n1Cc1ccc(Cl)o1)N(CCN)C(=O)c1ccc(Br)cc1` (centres unmarked) [Compound 170]: below 30 µM.

On to `Cc1ccc(C(=O)N(CCCN)C(c2nc3c(sc4ccccc43)c(=O)n2Cc2ccccc2)C(C)C)cc1` (centres unmarked) [Compound 135], for which the IC50 was below 30 µM. The same measure for `Cc1ccc(C(=O)N(CCN)C(c2nc3c(oc4cc(F)ccc43)c(=O)n2Cc2cc(C)cs2)C(C)C)cc1` (centres unmarked) [Compound 109]: below 30 µM. For the compound `Cc1ccc(C(=O)N(CCN)[C@@H](c2nc3c(oc4ccc(F)cc43)c(=O)n2Cc2ccc(Cl)o2)C2CC2)cc1` [Compound 224], the IC50 is below 30 µM. To `CC(C)C(c1nc2c(sc3ccccc32)c(=O)n1Cc1ccc(Br)s1)N(CCCN)C(=O)c1ccc(Cl)cc1` (centres unmarked) [Compound 147] belongs below 30 µM; to `Cc1ccc(C(=O)N(NCCN)C(c2nc3c(sc4ccccc43)c(=O)n2Cc2ccc(Br)s2)C(C)C)cc1` (centres unmarked) [Compound 149], below 30 µM. To `Cc1ccc(C(=O)N(CCCN)C(c2nc3cc4[nH]ccc4cc3c(=O)n2Cc2cccs2)C(C)C)cc1` (centres unmarked) [Compound 2] belongs below 30 µM; to `Cc1ccc(C(=O)N(CCN)C(c2nc3c(oc4ccc(Cl)cc43)c(=O)n2Cc2ccc(Cl)s2)C(C)C)cc1` (centres unmarked) [Compound 46], below 30 µM; to `Cc1ccc(C(=O)N(CCN)C(c2nc3c(oc4ccc(Cl)cc43)c(=O)n2Cc2ccc(/C=C/O)s2)C(C)C)cc1` (centres unmarked) [Compound 134], below 30 µM. The same measure for `Cc1ccc(C(=O)N(CCN)[C@@H](c2nc3c(oc4ccc(F)cc43)c(=O)n2Cc2ccccc2)C2CC2)cc1` [Compound 225]: below 30 µM; for `Cc1ccc(C(=O)N(CCCN)C(c2nc3c(oc4cc(F)ccc43)c(=O)n2Cc2ccccc2)C(C)C)cc1` (centres unmarked) [Compound 106]: below 30 µM.

Regarding `CC(C)[C@H](c1nc2c(oc3ccc(F)cc32)c(=O)n1Cc1ccc(Cl)o1)N(CCN)C(=O)c1ccc(Br)cc1` [Compound 204], the IC50 is below 30 µM. To `Cc1ccc(C(=O)N(CCN)C(c2nc3c(oc4ccc(F)cc43)c(=O)n2Cc2cccc(F)c2)C(C)C)cc1` (centres unmarked) [Compound 79] belongs below 30 µM; to `Cc1ccc(C(=O)N(CCN)[C@@H](c2nc3c(oc4ccc(F)cc43)c(=O)n2Cc2cc(Br)co2)C(C)C)cc1F` [Compound 218], below 30 µM; to `CCC(c1nc2c(oc3ccc(Cl)cc32)c(=O)n1Cc1ccccc1)N(CCN)S(=O)(=O)c1ccc(C)cc1` (centres unmarked) [Compound 34], below 30 µM. In the case of `Cc1ccc(C(=O)N(CCN)C(c2nc3c(oc4ccccc43)c(=O)n2Cc2ccc(Br)o2)C(C)C)cc1` (centres unmarked) [Compound 165], the IC50 was below 30 µM. For the compound `Cc1ccc(C(=O)N(CCN)C(c2nc3c(oc4ccc(F)cc43)c(=O)n2Cc2ccc(C#N)s2)C(C)C)cc1F` (centres unmarked) [Compound 174], the IC50 was below 30 µM. The same measure for `Cc1ccc(C(=O)N(NCCN)C(c2nc3c(oc4ccccc43)c(=O)n2Cc2ccccc2)C(C)C)cc1` (centres unmarked) [Compound 26]: below 30 µM. To `Cc1csc(Cn2c(C(C(C)C)N(CCN)C(=O)c3ccc(Br)cc3)nc3c(oc4ccc(F)cc43)c2=O)c1` (centres unmarked) [Compound 167] belongs below 30 µM; to `Cc1ccc(C(=O)N(CCN)[C@@H](c2nc3c(oc4ccc(F)cc43)c(=O)n2Cc2ccc(Br)s2)C(C)C)c(F)c1F` [Compound 209], below 30 µM. The same measure for `Cc1ccc(C(=O)N(CCN)[C@@H](c2nc3c(oc4ccc(F)cc43)c(=O)n2Cc2ccc(C(F)(F)F)o2)C(C)C)cc1` [Compound 213]: below 30 µM; for `Cc1ccc(C(=O)N(CCN)C(c2nc3c(oc4ccccc43)c(=O)n2Cc2ccc(Cl)s2)C(C)C)cc1` (centres unmarked) [Compound 160]: below 30 µM; for `CC(C)C(c1nc2c(sc3ccc(F)cc32)c(=O)n1Cc1ccccc1)N(CCCN)C(=O)c1ccc(Cl)cc1` (centres unmarked) [Compound 139]: below 30 µM.

With `Cc1ccc(C(=O)N(CCN)C(c2nc3c(oc4ccc(F)cc43)c(=O)n2Cc2cc(Br)cs2)C(C)C)cc1` (centres unmarked) [Compound 69], the half-inhibitory concentration (IC50) is below 30 µM. As for `Cc1ccc(C(=O)N(CCCN)C(c2nc3c(sc4ccc(F)cc43)c(=O)n2Cc2ccccc2)C(C)C)cc1F` (centres unmarked) [Compound 137], the IC50 is below 30 µM. To `Cc1ccc(C(=O)N(CCCN)C(c2nc3c(C#N)c4ccccc4cc3c(=O)n2Cc2ccc(Cl)s2)C(C)C)cc1` (centres unmarked) [Compound 8] belongs below 30 µM. As for `Cc1ccc(C(=O)N(CCN)[C@@H](c2nc3c(oc4ccc(F)cc43)c(=O)n2Cc2ccc(Br)s2)C(C)C)cc1` [Compound 183], the 50% inhibitory concentration (IC50) is below 30 µM. The same measure for `Cc1ccc(C(=O)N(CCCN)C(c2nc3c(sc4ccccc43)c(=O)n2Cc2ccc(Cl)s2)C(C)C)cc1F` (centres unmarked) [Compound 142]: below 30 µM; for `Cc1ccc(C(=O)N(CCN)C(c2nc3c(oc4ccc(Cl)cc43)c(=O)n2Cc2cc(C#N)cs2)C(C)C)cc1` (centres unmarked) [Compound 129]: below 30 µM; for `Cc1ccc(C(=O)N(CCCN)C(c2nc3n(c(=O)c2Cc2ccccc2)Cc2ccccc2-3)C(C)C)c(F)c1F` (centres unmarked) [Compound 154]: below 30 µM. Regarding `Cc1ccc(C(=O)N(CCCN)C(c2nc3c(oc4ccc(F)cc43)c(=O)n2Cc2ccsc2)C(C)C)cc1` (centres unmarked) [Compound 76], the IC50 was below 30 µM. The same measure for `Cc1ccc(C(=O)N(CCN)C(c2nc3c(oc4ccc(Cl)cc43)c(=O)n2Cc2cccs2)C(C)C)cc1` (centres unmarked) [Compound 44]: below 30 µM. To `CC(C)[C@H](c1nc2c(oc3ccc(F)cc32)c(=O)n1Cc1ccccc1)N(CCN)C(=O)c1ccc(Cl)cc1` [Compound 193] belongs below 30 µM; to `Cc1csc(Cn2c(C(C(C)C)N(CCN)C(=O)c3ccc(Cl)cc3)nc3c(oc4ccc(F)cc43)c2=O)c1` (centres unmarked) [Compound 166], below 30 µM; to `Cc1ccc(C(=O)N(CCN)C(c2nc3c(oc4cc(F)ccc43)c(=O)n2Cc2ccc(Cl)s2)C(C)C)cc1` (centres unmarked) [Compound 110], below 30 µM. For the compound `CCC(c1nc2nc3ccccc3cc2c(=O)n1Cc1ccccc1)N(CCCN)C(=O)c1ccc(C)cc1` (centres unmarked) [Compound 11], the 50% inhibitory concentration (IC50) is below 30 µM. To `Cc1ccc(C(=O)N(CCN)[C@@H](c2nc3c(oc4ccc(F)cc43)c(=O)n2Cc2cccs2)C(C)C)cc1F` [Compound 200] belongs below 30 µM. The same measure for `CCC(c1nc2c(oc3ccccc32)c(=O)n1Cc1ccccc1)N(CCCN)C(=O)c1ccc(C)cc1` (centres unmarked) [Compound 17]: below 30 µM; for `Cc1ccc(C(=O)N(CCN)C(c2nc3c(oc4ccc(F)cc43)c(=O)n2Cc2ccoc2)C(C)C)cc1` (centres unmarked) [Compound 128]: below 30 µM; for `Cc1ccc(C(=O)N(CCN)[C@@H](c2nc3c(oc4ccc(F)cc43)c(=O)n2Cc2ccoc2)C(C)C)cc1` [Compound 196]: below 30 µM. Turning to `Cc1ccc(C(=O)N(CCN)[C@@H](c2nc3c(oc4ccc(F)cc43)c(=O)n2Cc2ccc(C(F)(F)F)o2)C(C)C)cc1F` [Compound 214], the IC50 is below 30 µM. Turning to `Cc1ccc(C(=O)N(CCN)C(c2nc3c(oc4ccc(Cl)cc43)c(=O)n2Cc2cc(Br)co2)C(C)C)cc1` (centres unmarked) [Compound 99], the IC50 was below 30 µM. The same measure for `Cc1ccc(C(=O)N(CCN)C(c2nc3c(oc4ccc(F)cc43)c(=O)n2Cc2ccc(C(N)=O)s2)C(C)C)cc1` (centres unmarked) [Compound 98]: below 30 µM; for `CC(C)C(c1nc2c(oc3ccccc32)c(=O)n1Cc1ccccc1F)N(CCCN)C(=O)c1ccc(Br)cc1` (centres unmarked) [Compound 28]: below 30 µM.

As for `CC(C)C(c1nc2c(oc3ccc(F)cc32)c(=O)n1Cc1ccc(Cl)o1)N(CCN)C(=O)c1ccc(Cl)cc1` (centres unmarked) [Compound 169], the IC50 is below 30 µM. The same measure for `Cc1ccc(C(=O)N(CCCN)C(c2nc3c(I)c4ccccc4cc3c(=O)n2Cc2ccccc2)C(C)C)cc1` (centres unmarked) [Compound 9]: below 30 µM; for `CC(C)C(c1nc2c(oc3ccc(F)cc32)c(=O)n1Cc1ccc(C#N)s1)N(CCN)C(=O)c1ccc(Br)cc1` (centres unmarked) [Compound 173]: below 30 µM. To `CC(C)[C@H](c1nc2c(oc3ccc(F)cc32)c(=O)n1Cc1ccc(Br)s1)N(CCN)C(=O)c1ccc(Br)cc1` [Compound 210] belongs below 30 µM; to `Cc1ccc(C(=O)N(CCN)[C@@H](c2nc3c(oc4ccc(F)cc43)c(=O)n2Cc2cc(C)cs2)C(C)C)cc1` [Compound 179], below 30 µM.

Values taken from US20090214529A9, “KINESIN INHIBITORS” (TaiGen Biotechnology Co., Ltd., priority 2007, published 2009).
